This note sets out measurements from patent US20220162188A1, “ISOPRENOIDS AND METHODS OF MAKING THEREOF” (NORTH CAROLINA STATE UNIVERSITY, priority 2019, published 2022).

In one assay the target is IspA S81F (Escherichia coli, UniProt P22939, S80F). The class given is biochemical. To be noted: DMAPP as starter unit.
Another assay deals with IspA Y80D (Escherichia coli, UniProt P22939, Y79D). The class given is biochemical. The conditions noted are these: DMAPP as starter unit.
The target of assay [1] is IspA, a farnesyl diphosphate synthase (FPPase) (Escherichia coli, UniProt P22939). To be noted: wild-type IspA.
In assay [2] the target is T1, isopentenyl phosphate kinase (IPK) (Thermoplasma acidophilum, UniProt Q9HLX1).
T1 sequence (Q9HLX1 1-245): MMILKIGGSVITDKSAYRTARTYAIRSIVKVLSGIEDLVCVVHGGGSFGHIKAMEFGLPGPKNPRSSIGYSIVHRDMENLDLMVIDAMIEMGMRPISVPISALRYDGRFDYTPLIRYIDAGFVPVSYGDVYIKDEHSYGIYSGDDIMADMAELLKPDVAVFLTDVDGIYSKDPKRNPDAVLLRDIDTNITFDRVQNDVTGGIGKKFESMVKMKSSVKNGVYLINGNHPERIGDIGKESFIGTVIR
Put plainly: NADH-coupled kinetic assay of IPK. To be noted: IPK with monophosphorylated substrate, ± SD of the mean.
Procedure: The data was fitted to the Michaelis-Menten equation using SigmaPlot, and the kinetic parameters (kcat, Km, kcat/Km) extracted.
NADH-Coupled Kinetic Assays. NADH coupled assays were performed with purified enzymes. Reaction progress was monitored by absorbance at 340 nm at 30° C. in a 96-well plate using a Biotek Synergy 4 plate reader (Winooski, Vt.). 200 μL enzymatic mixtures contained 50 mM Tris (pH 8.0), 25 mM KCl, 2.5 mM MgCl2, 0.05 mM DTT, 1 mM ATP, 320 μM NADH, 400 μM phosphoenolpyruvate, 0.5 U pyruvate kinase, 0.7 U lactate dehydrogenase, and various amounts of substrate. Conditions were verified by doubling enzyme and verifying the initial rate was doubled as well.
Kinetics of IPK were done with purified enzyme using 0.09 μg of enzyme per well. Serial dilution was used to generate specific concentrations of substrates (3125, 1562, 781, 625, 391, 195, 98, 24, 12, and 3 μM). Each condition was performed in triplicate. Nonlinear regression was fitted using SigmaPlot (Systat Software Inc., San Jose, Calif., USA).

Entries after “also recorded” stand apart in the source; their conditions may differ.

Broadly, the kcat is the maximal rate divided by the concentration of active sites. The Km is the substrate concentration at which the rate is half of its maximum.

IspA, a farnesyl diphosphate synthase (FPPase), sequence (P22939 whole entry): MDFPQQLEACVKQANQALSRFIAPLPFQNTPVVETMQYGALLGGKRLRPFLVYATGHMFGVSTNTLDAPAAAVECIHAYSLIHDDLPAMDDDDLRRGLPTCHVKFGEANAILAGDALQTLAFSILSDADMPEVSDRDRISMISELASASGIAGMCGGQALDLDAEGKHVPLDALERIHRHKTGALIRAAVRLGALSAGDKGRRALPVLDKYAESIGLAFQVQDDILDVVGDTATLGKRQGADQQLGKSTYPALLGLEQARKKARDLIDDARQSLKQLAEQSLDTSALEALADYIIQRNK
IspA Y80D, sequence (P22939 whole entry Y79D): as the sequence (P22939 whole entry) above, with Y79D counted along it
IspA S81F, sequence (P22939 whole entry S80F): as the sequence (P22939 whole entry) above, with S80F counted along it

Take `CCC/C=C/COP(=O)(O)O` [Substrate 29]: the “use as extender unit in place of IPP (conversion by LC-MS), words” value at IspA S81F and at IspA Y80D was “most efficient analogues” each time. Moreover, in assay [1] (DMAPP as starter unit), the “use as extender unit in place of IPP (GPP analogue by LC-MS), words” value is “accepted by IspA; also recorded: most efficient analogues”. Also, the “use as extender unit in place of IPP (FPP analogue by LC-MS), words” value in assay [1] (GPP as starter unit) was “almost as good as that with IPP; also recorded: accepted by IspA”. In assay [2], the kcat stood at 43.0 ± 17.8 s⁻¹. Moreover, in assay [2] (1 mM ATP, 30° C.), the Km came to 6.83 ± 3.77 mM.
